Measured values published in patent US8008074B2, “Compositions and methods for improving bone mass through modulation of receptors of PTH and fragments thereof” (The UAB Research Foundation, priority 2006, dated 2011).
Entries after “also recorded” stand apart in the source; their conditions may differ.

Key:
Type in all cases: cell-based
[1] = tested on: Wnt responsive luciferase reporter (TCF4-Luc); experiment: TCF4-Luc luciferase reporter assay in UMR 106 cells; conditions: for TCF luciferase activity: 5×10^−7 M of indicated PTH ligands for 12 hours
[2] = tested on: TGF-β-induced transcription activity; experiment: Smad binding response luciferase reporter (SBE-luc) in 293 cells; conditions: TGF-β 2 ng/ml, 50 nM
Protocol: A Smad binding response luciferase reporter (SBE-luc) was transfected into 293 cells. TGF-β (2 ng/ml) was added in combination with different doses of PTH (1-34) or cPTH (39-84). Twenty-four hours after transfection, the cells were lysed and the luciferase signal was detected. Luciferase values shown in the figures are representative of transfection experiments performed in triplicate in at least three independent experiments. The relative increased fold of the luciferase activity stimulated by TGF-β in each cell line was calculated.
A Smad binding response luciferase reporter (SBE-luc) was introduced into the multi-cloning site of pcDNA3 (Invitrogen), and the resulting vector was transfected into 293 cells using Lipofectamine Plus reagent (Invitrogen, Cat. No. 10964-013). TGF-β (2 ng/ml) was added in combination with different doses of PTH (1-34) (50 nM) or cPTH (39-84) (50 nM). […] Forty-two hours after transfection, the cells were lysed, and the luciferase signal was detected using the Dual Luciferase assay kit (Promega) according to the manufacturer's instructions.
Luciferase values shown in the figures are representative of transfection experiments performed in triplicate in at least three independent experiments. The relative increased fold of the luciferase activity stimulated by TGF-β in each cell line was calculated.

Axin = Axin protein levels; conditions: cells overexpressing LRP6
Description: Binding of Axin to phosphorylated LRP6 leads to rapid degradation. Then inhibition of Axin/LRP6 binding should […] degradation of Axin. Indeed, Axin degradation is reduced by both inhibitors (data not shown). […] PKA and PKC also were examined to determine whether they regulate PTH-induced PTH1R/LRP6 complex formation. […] Apparently, the receptor complex formation is independent of activation of PKA and PKC. Instead, it seems that activation of G protein-mediated PKA and PKC signaling is in parallel with the recruitment of LRP5/6 in PTH signaling. PKA and PKC activity is required for LRP5/6 phosphorylation and Axin/LRP6 binding.
Wnts induce binding of Axin to phosphorylated LRP6, and the membrane-bound Axin undergoes rapid protein dephosphorylation and degradation, which eventually leads to β-catenin stabilization Willert et al., 1999; Yamamoto et al., 1999).

LRP6/Axin binding = experiment: Axin-LRP6 binding immunoprecipitation assay; conditions: for Axin-LRP6 binding: HEK 293 cells cotransfected with LRP6, Axin and GSK3β, ligand for 1 hour; for inhibition of PTH-induced binding of Axin to LRP6: pre-treatment 30 minutes, then PTH (1-84) for 1 hour
PTH1R/LRP5/6 complex = target: T1, PTH1R/LRP5/6 complex (Rattus norvegicus, UniProt P25961); experiment: Co-immunoprecipitation of endogenous PTH1R with LRP5/6 in UMR-106 cells; conditions: 5×10^−7 M PTH (1-84)
T1 construct: endogenous in cells; host or cells: UMR-106
T1 sequence (P25961 27-591): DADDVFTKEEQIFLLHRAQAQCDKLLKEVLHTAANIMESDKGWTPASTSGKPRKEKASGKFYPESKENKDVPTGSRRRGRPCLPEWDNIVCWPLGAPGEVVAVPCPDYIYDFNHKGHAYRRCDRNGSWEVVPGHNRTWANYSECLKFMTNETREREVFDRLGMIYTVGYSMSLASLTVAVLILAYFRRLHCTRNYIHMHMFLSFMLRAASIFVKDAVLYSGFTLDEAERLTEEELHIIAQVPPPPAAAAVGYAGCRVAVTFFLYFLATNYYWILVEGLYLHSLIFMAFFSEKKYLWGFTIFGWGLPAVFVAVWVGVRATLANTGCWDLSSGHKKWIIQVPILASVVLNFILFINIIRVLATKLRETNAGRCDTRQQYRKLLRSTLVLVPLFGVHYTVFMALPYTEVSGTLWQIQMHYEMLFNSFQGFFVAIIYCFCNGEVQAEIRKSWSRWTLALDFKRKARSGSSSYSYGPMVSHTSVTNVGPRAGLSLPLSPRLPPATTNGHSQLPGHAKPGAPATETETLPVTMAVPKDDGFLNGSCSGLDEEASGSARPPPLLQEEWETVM
Protocol: Endogenous LRP5 or LRP6 was coimmunoprecipitated with PTH1R in UMR 106 cells. UMR 106 cells were treated with 5×10^−7 M PTH (1-84) for indicated times. […] VSVG-tagged LRP6 was cotransfected into HEK 293 cells with HA-PTH1R, and the cells were treated with 5×10^−7 M PTH (1-84) for 1 hour. The LRP6-associated PTH ligand was determined by Western blotting of the anti-VSVG immunoprecipitates. […] VSVG-tagged LRP6, LRP6N, or LRP6C was cotransfected into HEK 293 cells with HA-PTH1R, and the cells were treated with or without 5×10^−7 M PTH (1-84) for 1 hour. The PTH1R-associated LRP6, LRP6N, or LRP6C was determined by Western blotting of the anti-HA immunoprecipitates, and the LRP6-, LRP6N- or LRP6C-associated PTH1R and PTH ligand was determined by Western blotting with an anti-VSVG antibody. […] The PTH1R-associated LRP6 was determined by Western blotting. […] The effect of LRP-6N on PTH-induced TCF4 activation was determined by luciferase assays.
To determine if PTH (1-84) induced the formation of a complex of endogenous PTH1R with LRP5/6, an immunoprecipitation assay in osteoblastic UMR-106 cells was used. […] The cell lysates isolated from transfected cells treated with or without PTH were subjected to immunoprecipitation with anti-PTH1R antibodies, and the immunocomplex was detected by Western blotting with a monoclonal antibody that recognizes both LRP5 and LRP6. […]

β-catenin = β-catenin stabilization, Western blot of UMR 106 cell fractions; conditions: UMR 106 cells; for inhibition of PTH-induced β-catenin stabilization: inhibitor 30 minutes before 10^−7 M PTH (1-84) for 1 hour, cytosolic fraction

## cPTH (39-84): C-terminal fragment of PTH, amino acids 39-84 (APLAPRDAGSQRPRKKEDNVLVESHEKSLGEADKADVNVLTKAKSQ; Parathyroid hormone; UniProt P01270 70-115, looked up, fragment)
[1]
  TCF luciferase activity: only a marginal increase
[2]
  effect on TGF-β-induced transcription activity (SBE-luc): inhibited TGF-β-induced transcription activity

## PTH (1-84): Full-length PTH or PTH ligand, 84 amino acids long, represented as 1-84
Axin
  Axin protein levels: further downregulated Axin protein levels
[1]
  TCF luciferase activity: significantly elevated
[1]; 10^−7M PTH (1-84), 12 hours
  activation of TCF4-Luc reporter: activates the Wnt signaling pathway
LRP6/Axin binding
  Axin-LRP6 binding: induces LRP6/Axin binding
LRP6/Axin binding; listed as PTH1-84
  Axin-LRP6 binding: stimulated Axin-LRP6 binding
PTH1R/LRP5/6 complex
  interaction between endogenous LRP5/6 and PTH1R: induced the interaction between endogenous LRP5/6 and PTH1R in a time dependent manner
  time of peak of PTH-induced LRP5/6-PTH1R interaction: 1 h
β-catenin; 5×10^−7 M PTH (1-84), 30 minutes
  β-catenin levels in cytosolic and nuclear fractions: stimulated the levels of β-catenin in both the cytoplasm and the nucleus

## PTHrP 1-40: PTHrP fragment 1-40 tested beside PTH ligands
Axin
  Axin protein levels: further downregulated Axin protein levels
[1]
  TCF luciferase activity: significantly elevated
LRP6/Axin binding
  Axin-LRP6 binding: stimulated Axin-LRP6 binding

## Calphostin C
[1]
  inhibition of PTH-stimulated TCF4-luciferase reporter activity: inhibited activity from a TCF4-luciferase reporter
LRP6/Axin binding
  inhibition of PTH-induced binding of Axin to LRP6: much weaker; also recorded: inhibit the binding of Axin with LRP6
β-catenin
  inhibition of PTH-induced β-catenin stabilization: less effective; also recorded: inhibit PTH-induced β-catenin stabilization

## O=S(=O)(NCCNC/C=C/c1ccc(Br)cc1)c1cccc2cnccc12 [H89]
[1]
  inhibition of PTH-stimulated TCF4-luciferase reporter activity: inhibited activity from a TCF4-luciferase reporter
LRP6/Axin binding
  inhibition of PTH-induced binding of Axin to LRP6: inhibit the binding of Axin with LRP6
β-catenin
  inhibition of PTH-induced β-catenin stabilization: inhibit PTH-induced β-catenin stabilization

## PTH 79-84: C-terminal PTH ligand as printed; possibly misprint of 39-84 (TKAKSQ; Parathyroid hormone; UniProt P01270 110-115, looked up, fragment)
Axin
  Axin protein levels: did not affect Axin level
LRP6/Axin binding
  Axin-LRP6 binding: did not
